Measured values taken from patent publication EP0356325A1, “Pharmaceutical composition containing a slightly water-soluble active substance and at least a glyceride gelled by at least a cellulose polymer” (Aiache, Jean-Marc, priority 1988, dated 1990).

Assay: Doxycycline base content and epimer contents after storage (Tableau 2)
Format: physicochemical
Source text: En outre, le tableau 2 présente une comparaison des teneurs en épimères (en p. cent) de deux préparations contenant la doxycycline (sous forme hyclate), avec le principe actif ayant servi à leur formulation. La formulation testée correspond à un produit stable.

[1] = après 1 mois de conservation à 37°C (étuve sèche), p.cent of area under chromatographic peaks
[2] = après 3 mois de conservation à température ambiante, p.cent of area under chromatographic peaks

Doxycycline base (après 1 mois de conservation à 37°C (étuve sèche)): 858,2 mg/g
6 Epidoxycycline [1]: 0,96 p.cent
Déméclocycline [1]: 1,99 p.cent
Oxytétracycline [1]: 0,65 p.cent
Doxycycline base (après 3 mois de conservation à température ambiante): 899,0 mg/g
6 Epidoxycycline [2]: 0,30 p.cent
Déméclocycline [2]: 1,81 p.cent
Oxytétracycline base [2]: 0,43 p.cent
SMILES: C[C@H]1c2cccc(O)c2C(=O)C2=C(O)[C@]3(O)C(=O)C(C(N)=O)=C(O)[C@@H](N(C)C)[C@@H]3[C@@H](O)[C@@H]21 [Doxycycline hyclate, hyclate de doxycycline]
